In paper PMC11468294, “Peptide Amphiphiles as Biodegradable Adjuvants for Efficient Retroviral Gene Delivery” (Advanced Healthcare Materials, 2023):
Entries after “also recorded” stand apart in the source; their conditions may differ. Where a SMILES comes first, the peptide text is derived from it. The star is where a group is joined. Palmitoyl = CCCCCCCCCCCCCCCC(=O)*

Key:
HeLa cells = assay: Cell-PA interaction by confocal laser scanning microscopy; assay type: cell-based; conditions: peptide 20 µg mL-1 added for 30 min, washed, Proteostat stain
Procedure: Confocal laser scanning microscopy and degradation study with PA1‐3 and HeLa cells: HeLa cells were seeded one day prior to conducting the assay (40000/well) in an 8‐well IBIDI slide. 4 µL of the preformed peptide fibrils (1 mg mL^−1) were diluted with 4 µL Proteostat (Enzo Life Science, 1 µL stock in 999 µL PBS) and incubated for 10 min and further diluted with medium to receive a final peptide concentration of 20 µg mL^−1. The nucleus of the HeLa cells was stained with Hoechst 33 342 (NucBlue, Thermo Fisher Scientific). The peptide solution was transferred to the HeLa cells and incubated for 30 min at 37°C before washing three times with PBS. The interaction of fibril clusters with cells was monitored after 30 min incubation time on a Stellaris 8 confocal laser scanning microscope (Leica) equipped with a 20x air objective and laser excitation wavelengths of 405 nm (Hoechst) and 561 nm (Proteostat). For the evaluation of aggregate degradation, the samples were further incubated at 37°C for 3 d and analyzed without any additional washing step. The evaluation of aggregate size and number was conducted by analyzing Proteostat stained aggregates via the 3D objects counter function of ImageJ 1.53f51 for 3 individual measurements (area 581.25 µm × 581.25 µm). […] The number of aggregates larger than 10 µm^2 were counted via the 3D objects counter function of ImageJ 1.53f51. The mean number and standard deviations were determined by averaging at least three technical triplicates.
Figure S6 Laser scanning microscopy micrographs of A cells only (control), and Proteostat-stained (red) peptides B EF-
C ([…]), C PA1, D PA2, E PA3, F P1, G P2, H P3 added to HeLa cells (nucleus in blue). The peptides (20 µg mL-
1) were added to cells for 30 min, washed and analyzed. […]

[1] = Microscopic aggregation (fluorescence / confocal microscopy, derived count rate); assay type: physicochemical; conditions: fibrils preformed at 1 mg mL-1 in PBS; ThT or Proteostat stain, widefield or confocal microscopy; derived count rate > 1000 kcps as criterion
Procedure: (§1) Transmission electron microscopy (TEM) measurements, Thioflavin (ThT), zeta‐potential measurements for fibril characterization, ATR‐IR spectra acquisition and the calculation of β−sheet were prepared and conducted analogous to a previous report.^[ [20], [86] ^] […] Fibrils were defined as distinct, if no visible structures could be identified in fluorescence and brightfield microscopy. […] The derived count rate of the zeta‐potential measurement was used as information on the light scattering intensity and turbidity of the sample as a further indicator for microscopic aggregation.^[ [90] ^]
Fluorescence microscopy: 1 µL Fibrils (1 mg mL^−1) were stained with 9 µL, 50 µM ThT. 10 µL of the stained fibrils (0.1 mg mL^−1) were placed on a microscopy glass. Fluorescence microscopy measurements were performed on a Leica DMi8 microscope with 10x air objective and equipped with a Leica MC170 HD camera with a filter setting λem = 527/30 nm upon excitation at λex = 480/40 nm) and processed with the Leica LASX software.
7 Effects of PA modifications on properties and activity
To investigate the effects of modification in the PA sequence, we created various peptide amphiphiles derived from PA1 by varying the (I) hydrophobic moiety, (II) the linkage chemistry and (III) the peptide sequence (Figure S12, SI chapter 7.1 – 7.3). The color code for sequence representation is yellow for the hydrophobic moiety, blue for cationic amino acids, red for non-polar amino acids, purple for polar uncharged amino acids, and green for anionic amino acids. To be concise, only the summarized information will be discussed, all original data for the peptides are summarized in the (Figure S26 - […]
Figure S12 Summarized overview of peptide amphiphile library in which systematic variations the original sequence […]
chemistry and (III) the peptide sequence on infectivity enhancement and degradability (see SI chapter 7.1 – 7.3).
In the following section a compound is considered infectivity enhancing if n-fold infectivity at 1.3 µM is larger than 2. A compound is considered to form µm-sized aggregates if visible particles were observed in widefield microscopy (brightfield or ThT-staining filter, objective 10x) or confocal […]
than 1000 kcps in Zeta-Potential measurements.
For the degradability only the PAs which could be stained with Proteostat (Figure S26) and were visible in microscopy (Figure S15, Figure S18, Figure S21, and Figure S22) were studied in detail. To determine […]
whether a PA is degraded or not, Proteostat stained PAs which are added to Hela cells (2 µg peptide added to 20.000 cells) and studied via confocal laser scanning microscopy. […]
In the following, we will distinguish between three aggregation types for fibrillar structures: Fibrils which were not aggregating (below resolution limit of the microscope, approx. 650 nm), moderately aggregating (< 50 µm2) and aggregating to large particles (> 50 µm 2).
7.1 Effects of hydrophobic moiety exchange on properties and activity
To investigate the effects of varying hydrophobic moieties on assembly, aggregation and activity , we

ThT fluorescence = assay type: physicochemical; parameters: key: + = ThT active; − = no ThT fluorescence observed; conditions: 1 mg mL-1 in PBS; ThT-active if fluorescence at least twice the control (PBS with 10% DMSO)
Procedure: ThT‐fluorescence: 20 µL 50 µM of ThT solution in PBS was pipetted in a black 384 well‐plate and 4 µL of the nanofibril solution 1 mg mL^−1 were added. For reference PBS with 10% DMSO (4 µL) instead of fibril solution was added. Subsequently, fluorescence emission was recorded λem = 488 nm upon excitation at λex = 440 nm with 10 nm bandwidth and multiple reads per well (3 × 3) using a Spark 20 M microplate reader (Tecan Group, Ltd). Data processing was performed with Origin software. A peptide fibril was considered as ThT‐active if the fluorescence intensity was at least twice as strong compared to the control (PBS containing 10% DMSO).

[2] = Zeta-potential measurement; assay type: physicochemical; conditions: fibrils 1 mg mL-1 in PBS, 60 µL diluted in 600 µL 1 mM KCl; triplicates
Procedure: Zeta‐potential: 60 µL of the peptides (1 mg mL^−1) were diluted in 600 µL, 1 mM KCl solution and placed in a disposable folded capillary cuvette. All zeta‐potential measurements (Zetasizer, Malvern Instruments) were conducted in triplicates for each sample.

[3] = ATR-FT-IR β-sheet content; assay type: physicochemical; conditions: ATR-IR of lyophilized fibril solutions (1 mg mL-1, PBS); peak integration at 1630 cm-1 in 2nd derivative of amide I region
Procedure: ATR‐FT‐IR: ATR‐IR spectra acquisition and the calculation of β−sheet content were conducted according to a previous report.^[ [20] ^] Briefly, FT‐IR spectra of solid samples were recorded after lyophilization of fibril solutions using a Bruker Tensor II spectrometer equipped with a diamond crystal as ATR element with a spectral resolution of 2 cm–1, each spectrum was an average of 64 scans. The data was processed with Origin software. β−sheet amount was determined by calculating the integral of the peak at 1630 cm^−1 (β‐sheet) relative to the integral between 1650–1700 cm^−1 (native structure) from the 2nd derivative of the FT‐IR spectra.

[4] = system: HIV-1 infection of TZM-bl cells; assay: HIV-1 infection assay (β-galactosidase luminescence reporter); assay type: cell-based; conditions: infectivity enhancing if n-fold at 1.3 µM larger than 2
Procedure: HIV‐1 Infection Assay: The effect of peptide fibrils on HIV‐1 infection was studied via a luminescence assay for β‐galactosidase, which was reported by TZM‐bl cells upon infection. 10000 TZM‐bl cells were seeded in 180 µl supplemented DMEM one day prior infection. The cells were inoculated with 20 µl PNF solution 1:1 (v/v) mixed with virus (1:500 dilution) after an incubation time of 10 min. The HIV‐1 infection assay was conducted in three technical replicates and repeated in three independent experiments unless stated otherwise. The assay was conducted as described before.^[ [20] ^]

[5] = TEM morphology of peptide assemblies; assay type: physicochemical; conditions: diluted from DMSO stock (10 mg mL-1) to 1 mg mL-1 in PBS, incubated 1 d at rt
Procedure: as §1
TEM: 5 µL of fibrils (1 mg mL^−1) were placed on 300 mesh, Formvar layered copper grids. After 10 min incubation time, the grids were staining with 4% uranyl acetate solution for 2.5 min. After
three washing steps with dd H2O excess solvent was removed by filter paper. Measurements
were performed on a Jeol 1400 electron microscope with 120 kV acceleration voltage.

Compound | association with cellular membranes (HeLa cells) | formation of µm-sized aggregates (in words) [1] | ThT fluorescence (ThT fluorescence) | Zeta-Potential [2] [mV] | β-sheet content [3] [%] | infectivity enhancement of HIV-1 (in words) [4] | morphology of peptide assemblies / fibril formation (TEM) [5]
CCCCCCCCCCCCCCCC(=O)N[C@@H](C)C(=O)NCC(=O)NCC(=O)N[C@@H](CCCNC(=N)N)C(=O)N[C@H](C(=O)N[C@@H](CCCCN)C(N)=O)C(C)C [C16-AGGRVK-NH2] (Palmitoyl-AGGRVK-NH2) | did not associate with cells | not forming µm-sized aggregates and forming too few/less aggregates, respectively; also recorded: no aggregation |  |  |  |  | 
CCCCCCCCCCCCCCCC(=O)N[C@H](C(=O)N[C@H](C(=O)N[C@H](C(=O)N[C@@H](C)C(=O)N[C@@H](C)C(=O)N[C@@H](C)C(=O)N[C@@H](CCC(=O)O)C(=O)N[C@@H](CCC(=O)O)C(=O)N[C@@H](CCC(=O)O)C(N)=O)C(C)C)C(C)C)C(C)C [PA3] (Palmitoyl-VVVAAAEEE-NH2) | does not associate with cells | did not bundle or adopt µm‐sized aggregates in PBS | + | −29.8 ± 2.7 | 61 | Inactive | distinct fibrils
